From US10828299B2 (Gilead Sciences, Inc., priority 2013, dated 2020)

Tested on: human hepatocytes
Assay: Human Hepatocyte Stability Assay
Assay type: in vitro ADME
Settings: comparison table with known compounds; head prints (units)
Procedure: The human […] stability of the compounds as predicted hepatocyte clearance in L/hr/kg was assessed. Compounds to be tested were diluted to 200 μM (4 μl of 10 mM DMSO stock into 196 μl ACN:H2O (50:50). Propranolol was used as a positive control, and buffer only without hepatocytes as 0% control. These were further diluted 4 μl with 891 μl KHB buffer (InVitroGRO catalog number Z99074) to provide 2× dosing solution. To each well of 24 well plate, 250 μl of the 2× dosing solution was added to each well with 250 μl of hepatocytes cells (1×10^6 viable cells/ml per well) or KHB for control samples to achieve a final compound concentration of 1 μM during incubation. The final solvent concentration was 0.01% DMSO and 0.25% ACN. The culture plate was placed on a rocker and incubated at 37° C., 5% CO2. Samples were collected at time 0, 1, 3, and 6 hours. The loss of parent compound was determined using LC-MS methods against a standard curve.

Hheps CL [mL/min/kg]	SMILES
1.2	Nc1cncc(-c2cn3ccnc3c(Nc3ccc(N4CCN(C5COC5)CC4)c(OCCO)c3)n2)n1 [Ex.-5, 2-(5-((6-(6-aminopyrazin-2-yl)imidazo[1,2-a]pyrazin-8-yl)amino)-2-(4-(oxetan-3-yl)piperazin-1-yl)phenoxy)ethanol]
1.3	Nc1cncc(-c2cn3ccnc3c(Nc3ccc(N4CCN(CC(CO)CO)CC4)cc3)n2)n1 [Ex.-6, 2-((4-(4-((6-(6-aminopyrazin-2-yl)imidazo[1,2-a]pyrazin-8-yl)amino)phenyl)piperazin-1-yl)methyl)propane-1,3-diol]
0.83	Cc1ncc(-c2cn3ccnc3c(Nc3ccc(N4CCN(C5COC5)CC4)c(OCCO)c3)n2)nc1N [Ex.-7, 2-(5-((6-(6-amino-5-methylpyrazin-2-yl)imidazo[1,2-a]pyrazin-8-yl)amino)-2-(4-(oxetan-3-yl)piperazin-1-yl)phenoxy)ethanol]

Second part, the molecule before the results:

SMILES	Hheps CL [mL/min/kg]
COc1ccc(Nc2nc(-c3cccc(N)c3)cn3ccnc23)cc1OC [6-(3-aminophenyl)-N-(3,4-dimethoxyphenyl)imidazo[1,2-a]pyrazin-8-amine, reference compound]	4
Cc1ncc(-c2cn3ccnc3c(Nc3ccc(N4CCOCC4)cc3)n2)cc1N [6-(5-amino-6-methylpyridin-3-yl)-N-(4-morpholinophenyl)imidazo[1,2-a]pyrazin-8-amine, reference compound]	13.3
Nc1cncc(-c2cn3ccnc3c(Nc3ccc(N4CCOCC4)cc3)n2)c1 [6-(5-aminopyridin-3-yl)-N-(4-morpholinophenyl)imidazo[1,2-a]pyrazin-8-amine, reference compound]	11.3
COc1ccc(Nc2nc(-c3ccc(N)nc3)cn3ccnc23)cc1OC [6-(6-aminopyridin-3-yl)-N-(3,4-dimethoxyphenyl)imidazo[1,2-a]pyrazin-8-amine, reference compound]	15
Cc1ncc(-c2cn3ccnc3c(Nc3ccc(N4CCN(C5COC5)CC4)cc3)n2)nc1N [Ex.-1, 6-(6-amino-5-methylpyrazin-2-yl)-N-(4-(4-(oxetan-3-yl)piperazin-1-yl)phenyl)imidazo[1,2-a]pyrazin-8-amine]	2
Nc1cncc(-c2cn3ccnc3c(Nc3ccc(N4CCN(C5COC5)CC4)cc3)n2)n1 [Ex.-2, 6-(6-aminopyrazin-2-yl)-N-(4-(4-(oxetan-3-yl)piperazin-1-yl)phenyl)imidazo[1,2-a]pyrazin-8-amine]	0.917
Nc1cncc(-c2cn3ccnc3c(Nc3ccc(N4CCO[C@@H](CO)C4)cc3)n2)n1 [Ex.-3, (R)-(4-(4-((6-(6-aminopyrazin-2-yl)imidazo[1,2-a]pyrazin-8-yl)amino)phenyl)morpholin-2-yl)methanol]	1.5
Cc1c(-c2cncc(N)n2)nc(Nc2ccc(N3CCN(C4COC4)CC3)cc2)c2nccn12 [Ex.-4, 6-(6-aminopyrazin-2-yl)-5-methyl-N-(4-(4-(oxetan-3-yl)piperazin-1-yl)phenyl)imidazo[1,2-a]pyrazin-8-amine]	1.3
